Where a SMILES comes first, the peptide text is derived from it. Bridges are numbered along the chain shown (N, C = ends). [ ]: non-standard residue; d: D form. The star is where a group is joined. ξ: configuration not given here. Phe(3-CF3) = N[C@@H](Cc1cccc(C(F)(F)F)c1)C(=O)O; Phe(4-CONH2) = NC(=O)c1ccc(C[C@H](N)C(=O)O)cc1; Phe(4-COOH) = N[C@@H](Cc1ccc(C(=O)O)cc1)C(=O)O; Bip = N[C@@H](Cc1ccc(-c2ccccc2)cc1)C(=O)O; Phe(3-Me) = Cc1cccc(C[C@H](N)C(=O)O)c1; Abu(3S-NH2) = C[C@H](N)[C@H](N)C(=O)O; NH(CH2)12COOH = O=C(O)CCCCCCCCCCCCN*; Val(3-OH) = CC(C)(O)[C@H](N)C(=O)O; 4Pal = N[C@@H](Cc1ccncc1)C(=O)O; Cha = N[C@@H](CC1CCCCC1)C(=O)O; Cit = NC(=O)NCCC[C@H](N)C(=O)O; Ile(3ξ) = CCC(C)[C@H](N)C(=O)O; Thr(3ξ) = CC(O)[C@H](N)C(=O)O; hSer = N[C@@H](CCO)C(=O)O; Carboxymethyl = O=C(O)C*; NMeA = CN[C@@H](C)C(=O)O; Orn = NCCC[C@H](N)C(=O)O; Aun = NCCCCCCCCCCC(=O)O; Dab = NCC[C@H](N)C(=O)O; Dap = NC[C@H](N)C(=O)O; AEEA = NCCOCCOCC(=O)O

T1 sequence (Q15116 25-288): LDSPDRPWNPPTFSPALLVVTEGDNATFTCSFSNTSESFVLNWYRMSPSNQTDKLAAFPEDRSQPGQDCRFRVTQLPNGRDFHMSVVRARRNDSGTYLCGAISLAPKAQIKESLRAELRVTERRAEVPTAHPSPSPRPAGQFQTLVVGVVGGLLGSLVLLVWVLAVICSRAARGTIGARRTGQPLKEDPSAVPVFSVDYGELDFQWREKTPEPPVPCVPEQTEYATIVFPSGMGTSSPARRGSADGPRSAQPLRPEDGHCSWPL

One experiment concerns the target T1, PD-1/PD-L1 interaction (PE-labeled human PD-L1-Ig binding to Jurkat cell line over-expressing human PD-1) (Homo sapiens, UniProt Q15116).
T1 construct: expressed in transfected cells; host or cells: Jurkat
Description: Jurkat-PD-1 Cell Binding High-Content Screening Assay (CBA). Particulars: Jurkat-hPD-1 cells, PE-labeled PD-L1-Ig 20 nM final; read-out: Jurkat HPD1 PDL1 IC50. The method in brief: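 In this imaging assay, cells in 10% FCS medium see compound for 2 h at 37 °C and then labeled ligand at 20 nM final for 1 h. Paraformaldehyde fixation, Hoechst 33342 staining and dPBS washes precede image capture.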
For `CCC(C)[C@@H]1NC(=O)[C@H](Cc2ccc(-c3ccccc3)cc2)NC(=O)[C@H](CC(C)C)NC(=O)[C@H](Cc2c[nH]c3ccccc23)NC(=O)[C@H](CC(=O)O)NC(=O)[C@H](Cc2ccc(O)cc2)NC(=O)[C@H](Cc2ccncc2)NC(=O)CSC[C@@H](C(=O)N[C@H](CC(N)=O)C(=O)NCCOCCOCC(=O)N[C@@H](CCN)C(=O)NCCOCCOCC(=O)NCCCCCCCCCCC(=O)O)NC(=O)[C@H](CO)NC(=O)[C@H](C(C)C)NC(=O)[C@H](CC(C)C)NC(=O)[C@H](CC(N)=O)NC(=O)[C@@H](CC(C)C)NC(=O)[C@H](C)N(C)C1=O` (stereo partly drawn) [Example 2061] ({CH2CO}-[4Pal]YDWL[Bip][Ile(3ξ)][NMeA][dL]NLVSC[dN][AEEA][Dab][AEEA][Aun]-OH; thioether N-14), the IC50 was determined as 777 nM.

For `Cc1cccc(C[C@@H]2NC(=O)[C@H](CC(=O)O)NC(=O)[C@H](Cc3ccc(OCC(=O)O)cc3)NC(=O)[C@H]([C@@H](C)O)NC(=O)CSC[C@@H](C(=O)N[C@@H](CCN)C(=O)NCCOCCOCC(=O)NCCCCCCCCCCC(=O)O)NC(=O)[C@H](CC(N)=O)NC(=O)[C@H](C(C)C)NC(=O)[C@H](CC3CCCCC3)NC(=O)[C@H](CCC(=O)O)NC(=O)[C@@H](CC(C)C)NC(=O)[C@H](C)N(C)C(=O)[C@H](Cc3ccc(OCC(=O)O)cc3)NC(=O)[C@H](Cc3ccc(-c4ccccc4)cc3)NC(=O)[C@H](Cc3ccc(OCC(=O)O)cc3)NC2=O)c1` [Example 1377] ({CH2CO}-TY(Carboxymethyl)D[Phe(3-Me)]Y(Carboxymethyl)[Bip]Y(Carboxymethyl)[NMeA][dL]E[Cha]VNC[Dab][AEEA][Aun]-OH; thioether N-14), the IC50 was determined as 31 nM. The same measure, in the same setting: the value for `Cc1cccc(C[C@@H]2NC(=O)[C@H](CC(=O)O)NC(=O)[C@H](Cc3ccc(OCC(=O)O)cc3)NC(=O)[C@H](Cc3ccc(OCC(=O)O)cc3)NC(=O)CSC[C@@H](C(=O)N[C@@H](CCN)C(=O)NCCCCCCCCCCC(=O)O)NC(=O)[C@H]([C@@H](C)O)NC(=O)[C@H](C(C)C)NC(=O)[C@H](CC3CCCCC3)NC(=O)[C@H](CCN)NC(=O)[C@@H](CC(C)C)NC(=O)[C@H](C)N(C)C(=O)[C@H](Cc3ccc(OCC(=O)O)cc3)NC(=O)[C@H](Cc3ccc(-c4ccccc4)cc3)NC(=O)[C@H](C(C)C)NC2=O)c1` [Example 1264] ({CH2CO}-Y(Carboxymethyl)Y(Carboxymethyl)D[Phe(3-Me)]V[Bip]Y(Carboxymethyl)[NMeA][dL][Dab][Cha]VTC[Dab][Aun]-OH; thioether N-14) was 31.8 nM; that for `CC(C)C[C@H]1NC(=O)[C@H](C)N(C)C(=O)[C@H](CCCNC(N)=O)NC(=O)[C@H](Cc2ccc(-c3ccccc3)cc2)NC(=O)[C@H](Cc2ccc(C(=O)O)cc2)NC(=O)[C@H](Cc2cccc(C(F)(F)F)c2)NC(=O)[C@H](CC(=O)O)NC(=O)[C@H](Cc2ccc(OCC(=O)O)cc2)NC(=O)[C@H]([C@H](C)N)NC(=O)CSC[C@@H](C(=O)N[C@@H](CCN)C(=O)NCCCCCCCCCCCCC(=O)O)NC(=O)[C@H](Cc2c[nH]cn2)NC(=O)[C@H](C(C)(C)O)NC(=O)[C@H](CC2CCCCC2)NC(=O)[C@H](CCN)NC1=O` [Example 1197] ({CH2CO}-[Abu(3S-NH2)]Y(Carboxymethyl)D[Phe(3-CF3)][Phe(4-COOH)][Bip][Cit][NMeA][dL][Dab][Cha][Val(3-OH)]HC[Dab]-{NH(CH2)12COOH}; thioether N-14) was 18.9 nM. For the compound `Cc1cccc(C[C@@H]2NC(=O)[C@H](CC(=O)O)NC(=O)[C@H](Cc3ccc(OCC(=O)O)cc3)NC(=O)[C@H](Cc3ccc(OCC(=O)O)cc3)NC(=O)CSC[C@@H](C(=O)N[C@@H](CO)C(=O)NCCCCCCCCCCC(=O)O)NC(=O)[C@H](C(C)O)NC(=O)[C@H](CN)NC(=O)[C@H](CC3CCCCC3)NC(=O)[C@H](CCN)NC(=O)[C@@H](CC(C)C)NC(=O)[C@H](C)N(C)C(=O)[C@H](CCCNC(=N)N)NC(=O)[C@H](Cc3ccc(-c4ccccc4)cc3)NC(=O)[C@H](C(C)C)NC2=O)c1` (stereo partly drawn) [Example 2384] ({CH2CO}-Y(Carboxymethyl)Y(Carboxymethyl)D[Phe(3-Me)]V[Bip]R[NMeA][dL][Dab][Cha][Dap][Thr(3ξ)]CS[Aun]-OH; thioether N-14), the IC50 was determined as 37.1 nM. With `Cc1cccc(C[C@@H]2NC(=O)[C@H](CC(=O)O)NC(=O)[C@H](Cc3ccc(OCC(=O)O)cc3)NC(=O)[C@H](CCCNC(=N)N)NC(=O)CSC[C@@H](C(=O)N[C@H](CC(N)=O)C(=O)NCCCCCCCCCCC(=O)O)NC(=O)[C@H](CCO)NC(=O)[C@H](C(C)C)NC(=O)[C@H](CC3CCCCC3)NC(=O)[C@H](CCN)NC(=O)[C@@H](CC(C)C)NC(=O)[C@H](C)N(C)C(=O)[C@H](Cc3ccc(OCC(=O)O)cc3)NC(=O)[C@H](Cc3ccc(-c4ccccc4)cc3)NC(=O)[C@H](Cc3ccc(OCC(=O)O)cc3)NC2=O)c1` [Example 2362] ({CH2CO}-RY(Carboxymethyl)D[Phe(3-Me)]Y(Carboxymethyl)[Bip]Y(Carboxymethyl)[NMeA][dL][Dab][Cha]V[hSer]C[dN][Aun]-OH; thioether N-14), the IC50 stood at 40.2 nM. As for `CC(C)C[C@H]1NC(=O)[C@H](C)N(C)C(=O)[C@H](Cc2ccc(OCC(=O)O)cc2)NC(=O)[C@H](Cc2ccc(-c3ccccc3)cc2)NC(=O)[C@H](Cc2ccc(OCC(=O)O)cc2)NC(=O)[C@H](Cc2c[nH]c3ccccc23)NC(=O)[C@H](CC(=O)O)NC(=O)[C@H](Cc2ccc(OCC(=O)O)cc2)NC(=O)[C@H]([C@@H](C)O)NC(=O)CSC[C@@H](C(=O)N[C@@H](CCCN)C(=O)NCCOCCOCC(=O)NCCCCCCCCCCC(=O)O)NC(=O)[C@H]([C@@H](C)O)NC(=O)[C@H](C(C)C)NC(=O)[C@H](CC2CCCCC2)NC(=O)[C@H](CCN)NC1=O` [Example 1394] ({CH2CO}-TY(Carboxymethyl)DWY(Carboxymethyl)[Bip]Y(Carboxymethyl)[NMeA][dL][Dab][Cha]VTC[Orn][AEEA][Aun]-OH; thioether N-14), the IC50 was determined as 143 nM.

The same experiment, now with this note: PE-labeled PD-L1-Ig 20 nM final, Jurkat-hPD-1 cells; read-out: Jurkat HPD1 PDL1 IC50.
Regarding `CC(=O)NCCCC[C@@H]1NC(=O)[C@H](C(C)(C)O)NC(=O)[C@H](CC2CCCCC2)NC(=O)[C@H](CCN)NC(=O)[C@@H](CC(C)C)NC(=O)[C@H](C)N(C)C(=O)[C@H](CCC(=O)O)NC(=O)[C@H](Cc2ccc(-c3ccccc3)cc2)NC(=O)[C@H](Cc2ccc(C(N)=O)cc2)NC(=O)[C@H](Cc2cccc(C)c2)NC(=O)[C@H](CC(=O)O)NC(=O)[C@H](Cc2ccc(OCC(=O)O)cc2)NC(=O)[C@H](Cc2ccc(OCC(=O)O)cc2)NC(=O)CSC[C@@H](C(=O)N[C@@H](CCN)C(=O)NCCOCCOCC(=O)NCCCCCCCCCCC(=O)O)NC1=O` [Example 2532] ({CH2CO}-Y(Carboxymethyl)Y(Carboxymethyl)D[Phe(3-Me)][Phe(4-CONH2)][Bip]E[NMeA][dL][Dab][Cha][Val(3-OH)]K(Ac)C[Dab][AEEA][Aun]-OH; thioether N-14), the IC50 amounted to 1.4 nM.

Turning to `Cc1cccc(C[C@@H]2NC(=O)[C@H](CC(=O)O)NC(=O)[C@H](Cc3ccc(OCC(=O)O)cc3)NC(=O)[C@H](Cc3ccncc3)NC(=O)CSC[C@@H](C(=O)N[C@@H](CCN)C(=O)NCCOCCOCC(=O)NCCCCCCCCCCC(=O)O)NC(=O)[C@H](CCC(=O)O)NC(=O)[C@H](C(C)(C)O)NC(=O)[C@H](CC3CCCCC3)NC(=O)[C@H](CCN)NC(=O)[C@@H](CC(C)C)NC(=O)[C@H](C)N(C)C(=O)[C@H](Cc3ccc(C(=O)O)cc3)NC(=O)[C@H](Cc3ccc(-c4ccccc4)cc3)NC(=O)[C@H](Cc3ccc(C(=O)O)cc3)NC2=O)c1` [Example 2485] ({CH2CO}-[4Pal]Y(Carboxymethyl)D[Phe(3-Me)][Phe(4-COOH)][Bip][Phe(4-COOH)][NMeA][dL][Dab][Cha][Val(3-OH)]EC[Dab][AEEA][Aun]-OH; thioether N-14), the IC50 worked out at 11.5 nM.

For the origin of these results see patent publication US20260070945A1, “MACROCYCLIC IMMUNOMODULATORS” (Bristol-Myers Squibb Company, priority 2022, published 2026).
